In patent publication US12582641B2, “Sulfur-containing compound based on glutarimide skeleton and application thereof” (SHANGHAITECH UNIVERSITY, priority 2019, dated 2026):

These compounds were tested on MM.1S cells (assay: Proliferation inhibition (IC50) in MM.1S cells, cell viability assay). Conditions: Homo sapiens, MM1.S, 72 h, read-out: IC50 (nM), proliferation inhibitory activity of MM.1S cells (half inhibitory concentration).
Experimental: MM.1S (B lymphoblast) was purchased from ATCC. Complete medium was RPMI1640 supplemented with 10% FBS and 1% Penicillin-Streptomycin. The cells used were identified as correct cells by STR cells, and were negative for mycoplasma through routine inspections.
IC50 values of the compounds of the present disclosure were measured using Cell Titer Blue, Cell Titer GLO, or WST reagent from Promega Company. Assay details are as follows: Cells were seeded in 100 μL RPMI1640 complete medium containing serum at a density of 15,000 cells/well. After 24 h, the inoculated cells were treated with diluted commercial inhibitor and the compounds of the present disclosure to be tested after serial dilution. After the cells were treated with the compounds of the present disclosure to be tested for 72 h, cell viability was determined after adding the cell viability detection kit listed above according to the reagent operating instructions. The negative control was DMSO, and the positive control was a commercial inhibitor, both of which were used to treat the cells through the same method as that of the compounds of the present disclosure. The growth inhibition of the compounds of the present disclosure on cells was plotted by Prism Graphpad software, and the IC50 values of the compounds of the present disclosure were calculated therefrom.
We tested the activities of the compounds of the present invention in MM.1S cell (which overexpressed IKZF1/3 and is highly sensitive to immunomodulatory drugs) through a dose-dependent manner. The cells were treated with the compounds of the present invention at 10 different successively decreasing concentrations (starting at the highest concentration of 10 μM; 5-fold serial dilutions) for 72 h, and then the cell viability determination was performed in accordance with CCK-8 reagent operating instructions. The experiment was repeated more than three times.

Structure (SMILES)	IC50
O=C1CCC(N2Cc3c(SCCCCCCCNC45CC(C4)C5)cccc3C2=O)C(=O)N1 (stereo not drawn) [SIAIS1222123, 3-(4-((7-(bicyclo[1.1.1]pentan-1-ylamino)heptyl)thio)-1-oxoisoindolin-2-yl)piperidine-2,6-dione]	0.053 nM
O=C1CCC(N2Cc3c(SCCCCCCCCCS(=O)(=O)CCCC(F)(F)C(F)(F)F)cccc3C2=O)C(=O)N1 (stereo not drawn) [SIAIS1220147, 3-(1-oxo-4-((9-((4,4,5,5,5-pentafluoropentyl)sulfonyl)nonyl)thio)isoindolin-2-yl)piperidine-2,6-dione]	1.59 nM
O=C1CCC(N2Cc3c(SCc4nc(CNC5CCCCC5)cs4)cccc3C2=O)C(=O)N1 (stereo not drawn) [SIAIS355003, 3-(4-(((4-((cyclohexylamino)methyl)thiazol-2-yl)methyl)thio)-1-oxoisoindolin-2-yl)piperidine-2,6-dione]	0.75 ± 0.1 nM
O=C1CCC(N2C(=O)c3cccc(SCCCc4ccc(CNC5CCCCC5)cc4)c3C2=O)C(=O)N1 (stereo not drawn) [SIAIS1227069, 4-((3-(4-((cyclohexylamino)methyl)phenyl)propyl)thio)-2-(2,6-dioxopiperidin-3-yl)isoindoline-1,3-dione]	1.12 nM
CC(NCc1ccc(CSc2cccc3c2CN(C2CCC(=O)NC2=O)C3=O)cc1)C12CC3CC(CC(C3)C1)C2 (stereo not drawn) [SIAIS1222157, 3-(4-((4-(((1-(adamantan-1-yl)ethyl)amino)methyl)benzyl)thio)-1-oxoisoindolin-2-yl)piperidine-2,6-dione]	0.04 nM
CCN(CC)CCCCCCCCCCCSc1cccc2c1CN(C1CCC(=O)NC1=O)C2=O (stereo not drawn) [SIAIS1220047, 3-(4-((11-(diethylamino)undecyl)thio)-1-oxoisoindolin-2-yl)piperidine-2,6-dione]	0.11 ± 0.01 nM
O=C1CCC(N2Cc3c(SCCc4ccc(CNC56CC7CC(CC(C7)C5)C6)cc4)cccc3C2=O)C(=O)N1 (stereo not drawn) [SIAIS1224149, 3-(4-((4-(((adamantan-1-yl)amino)methyl)phenethyl)thio)-1-oxoisoindolin-2-yl)piperidine-2,6-dione]	0.44 ± 0.1 nM
O=C1CCC(N2C(=O)c3cccc(SCCc4ccc(CNC5CCCCC5)cc4)c3C2=O)C(=O)N1 (stereo not drawn) [SIAIS1227019, 4-((4-((cyclohexylamino)methyl)phenethyl)thio)-2-(2,6-dioxopiperidin-3-yl)isoindoline-1,3-dione]	34.3 nM
O=C1CCC(N2Cc3c(SCc4csc(CNC5CCCC5)n4)cccc3C2=O)C(=O)N1 (stereo not drawn) [SIAIS313166, 3-(4-(((2-((cyclopentylamino)methyl)thiazol-4-yl)methyl)thio)-1-oxoisoindolin-2-yl)piperidine-2,6-dione]	7.55 ± 1.89 nM
O=C1CCC(N2C(=O)c3cccc(SCc4ccc(CNC56CC7CC(CC(C7)C5)C6)cc4)c3C2=O)C(=O)N1 (stereo not drawn) [SIAIS1222013, 4-((4-(((adamantan-1-yl)amino)methyl)benzyl)thio)-2-(2,6-dioxopiperidin-3-yl)isoindoline-1,3-dione]	0.621 nM
CNCCCCCSc1cccc2c1CN(C1CCC(=O)NC1=O)C2=O (stereo not drawn) [SIAIS1216141, 3-(4-((5-(methylamino)pentyl)thio)-1-oxoisoindolin-2-yl)piperidine-2,6-dione]	12.6 ± 3.47 nM
O=C1CCC(N2Cc3c(SCCCCCCCCN4CCOCC4)cccc3C2=O)C(=O)N1 (stereo not drawn) [SIAIS1216143, 3-(4-((8-morpholinooctyl)thio)-1-oxoisoindolin-2-yl)piperidine-2,6-dione]	0.17 ± 0.04 nM
CCN(CC)CCc1ccc(CSc2cccc3c2CN(C2CCC(=O)NC2=O)C3=O)cc1 (stereo not drawn) [SIAIS1227097, 3-(4-((4-(2-(diethylamino)ethyl)benzyl)thio)-1-oxoisoindolin-2-yl)piperidine-2,6-dione]	0.163 nM
CC1(C)[C@@H]2CC[C@@]1(C)[C@@H](NCCCCCCSc1cccc3c1CN(C1CCC(=O)NC1=O)C3=O)C2 (stereo partly drawn) [SIAIS1221115, 3-(1-oxo-4-((6-(((1R,2S,4R)-1,7,7-trimethylbicyclo[2.2.1]heptan-2-yl)amino)hexyl)thio)isoindolin-2-yl)piperidine-2,6-dione]	0.082 nM
CC1CC(C)CN(Cc2ccc(CSc3cccc4c3CN(C3CCC(=O)NC3=O)C4=O)cc2)C1 (stereo not drawn) [SIAIS1227117, 3-(4-((4-((3,5-dimethylpiperidin-1-yl)methyl)benzyl)thio)-1-oxoisoindolin-2-yl)piperidine-2,6-dione]	0.2 ± 0.08 nM
O=C1CCC(N2Cc3c(SCc4ccc(CNCC56CC7CC(CC(C7)C5)C6)cc4)cccc3C2=O)C(=O)N1 (stereo not drawn) [SIAIS1222085, 3-(4-((4-(((adamantan-1-ylmethyl)amino)methyl)benzyl)thio)-1-oxoisoindolin-2-yl)piperidine-2,6-dione]	0.029 nM
O=C1CCC(N2Cc3c(SCc4ccc(CNCC5CCCCO5)cc4)cccc3C2=O)C(=O)N1 (stereo not drawn) [SIAIS1224019, 3-(1-oxo-4-((4-((((tetrahydro-2H-pyran-2-yl)methyl)amino)methyl)benzyl)thio)isoindolin-2-yl)piperidine-2,6-dione]	0.048 nM
Cc1ccc(NC(=O)NCCSc2cccc3c2CN(C2CCC(=O)NC2=O)C3=O)cc1Cl (stereo not drawn) [SIAIS269012, 1-(3-chloro-4-methylphenyl)-3-(2-((2-(2,6-dioxopiperidin-3-yl)-1-oxoisoindolin-4-yl)thio)ethyl)urea]	3.79 nM

Structure (SMILES)	IC50
O=C1CCC(N2Cc3c(SCCc4ccc(CCNC56CC7CC(CC(C7)C5)C6)cc4)cccc3C2=O)C(=O)N1 (stereo not drawn) [SIAIS1224121, 3-(4-((4-(2-((adamantan-1-yl)amino)ethyl)phenethyl)thio)-1-oxoisoindolin-2-yl)piperidine-2,6-dione]	0.48 ± 0.05 nM
O=C1CCC(N2Cc3c(SCc4cccc(CNC5CCCCC5)c4)cccc3C2=O)C(=O)N1 (stereo not drawn) [SIAIS1227133, 3-(4-((3-((cyclohexylamino)methyl)benzyl)thio)-1-oxoisoindolin-2-yl)piperidine-2,6-dione]	0.13 ± 0.07 nM
CC(C)N(CCCCCCCCSc1cccc2c1CN(C1CCC(=O)NC1=O)C2=O)C(C)C (stereo not drawn) [SIAIS1220021, 3-(4-((8-(diisopropylamino)octyl)thio)-1-oxoisoindolin-2-yl)piperidine-2,6-dione]	0.16 ± 0.05 nM
CC1(C)CCN(Cc2ccc(CSc3cccc4c3CN(C3CCC(=O)NC3=O)C4=O)cc2)CC1 (stereo not drawn) [SIAIS1227113, 3-(4-((4-((4,4-dimethylpiperidin-1-yl)methyl)benzyl)thio)-1-oxoisoindolin-2-yl)piperidine-2,6-dione]	0.03 ± 0.01 nM
O=C1CCC(N2Cc3c(SCCCCCCCNC4CCCCC4)cccc3C2=O)C(=O)N1 (stereo not drawn) [SIAIS1220185, 3-(4-((7-(cyclohexylamino)heptyl)thio)-1-oxoisoindolin-2-yl)piperidine-2,6-dione]	0.026 ± 0.007 nM
O=C1CCC(N2Cc3c(SCCc4ccc(CN5CCCCC5)cc4)cccc3C2=O)C(=O)N1 (stereo not drawn) [SIAIS1224161, 3-(1-oxo-4-((4-(piperidin-1-ylmethyl)phenethyl)thio)isoindolin-2-yl)piperidine-2,6-dione]	3.62 nM
CN(CCCCCCCSc1cccc2c1CN(C1CCC(=O)NC1=O)C2=O)[C@H]1C[C@H]2CC[C@]1(C)C2(C)C (stereo partly drawn) [SIAIS1221129, 3-(4-((7-(methyl((1R,2S,4R)-1,7,7-trimethylbicyclo[2.2.1]heptan-2-yl)amino)heptyl)thio)-1-oxoisoindolin-2-yl)piperidine-2,6-dione]	0.021 nM
O=C1CCC(N2Cc3c(SCCCCCCCCNC45CC6CC(CC(C6)C4)C5)cccc3C2=O)C(=O)N1 (stereo not drawn) [SIAIS1220087, 3-(4-((8-((adamantan-1-yl)amino)octyl)thio)-1-oxoisoindolin-2-yl)piperidine-2,6-dione]	0.12 nM
O=C1CCC(N2C(=O)c3cccc(SCCCc4ccc(CN5CCCCC5)cc4)c3C2=O)C(=O)N1 (stereo not drawn) [SIAIS1227039, 2-(2,6-dioxopiperidin-3-yl)-4-((3-(4-(piperidin-1-ylmethyl)phenyl)propyl)thio)isoindoline-1,3-dione]	2.49 nM
O=C1CCC(N2Cc3c(SCCCCCCC(=O)N4CCCCC4)cccc3C2=O)C(=O)N1 (stereo not drawn) [SIAIS1220115, 3-(1-oxo-4-((7-oxo-7-(piperidin-1-yl)heptyl)thio)isoindolin-2-yl)piperidine-2,6-dione]	0.05 nM
O=C1CCC(N2Cc3c(SCCCCCCCN4CCOCC4)cccc3C2=O)C(=O)N1 (stereo not drawn) [SIAIS1220031, 3-(4-((7-morpholinoheptyl)thio)-1-oxoisoindolin-2-yl)piperidine-2,6-dione]	0.22 ± 0.04 nM
O=C1CCC(N2Cc3c(SCc4nc(CN5CCSCC5)cs4)cccc3C2=O)C(=O)N1 (stereo not drawn) [SIAIS355001, 3-(1-oxo-4-(((4-(thiomorpholinomethyl)thiazol-2-yl)methyl)thio)isoindolin-2-yl)piperidine-2,6-dione]	2.51 ± 0.54 nM
O=C1CCC(N2Cc3c(SCCCNC45CC6CC(CC(C6)C4)C5)cccc3C2=O)C(=O)N1 (stereo not drawn) [SIAIS1222177, 3-(4-((3-(adamantan-1-ylamino)propyl)thio)-1-oxoisoindolin-2-yl)piperidine-2,6-dione]	0.693 nM
O=C1CCC(N2Cc3c(SCc4nc(CN5CC6CCCCC6C5)cs4)cccc3C2=O)C(=O)N1 (stereo not drawn) [SIAIS313188, 3-(4-(((4-((hexahydro-1H-isoindol-2(3H)-yl)methyl)thiazol-2-yl)methyl)thio)-1-oxoisoindolin-2-yl)piperidine-2,6-dione]	1.43 ± 0.3 nM
CN1C(=O)CCC(N2Cc3c(SCCCCCCCNC45CC6CC(CC(C6)C4)C5)cccc3C2=O)C1=O (stereo not drawn) [SIAIS1221149, 3-(4-((7-(adamantan-1-ylamino)heptyl)thio)-1-oxoisoindolin-2-yl)-1-methylpiperidine-2,6-dione]	21.9 nM
O=C1CCC(N2Cc3c(SCc4ccc(CNC5C6CC7CC(C6)CC5C7)cc4)cccc3C2=O)C(=O)N1 (stereo not drawn) [SIAIS1221005, 3-(4-((4-((adamantan-2-ylamino)methyl)benzyl)thio)-1-oxoisoindolin-2-yl)piperidine-2,6-dione]	0.035 ± 0.007 nM
O=C1CCC(N2Cc3c(SCCCCCCCN4CCSCC4)cccc3C2=O)C(=O)N1 (stereo not drawn) [SIAIS1224125, 3-(1-oxo-4-((7-thiomorpholinoheptyl)thio)isoindolin-2-yl)piperidine-2,6-dione]	0.046 nM
O=C1CCC(N2Cc3c(SCCCCCN4CCNCC4)cccc3C2=O)C(=O)N1 (stereo not drawn) [SIAIS1216063, 3-(1-oxo-4-((5-(piperazin-1-yl)pentyl)thio)isoindolin-2-yl)piperidine-2,6-dione]	8.58 ± 2.58 nM
